# Test results taken from patent US11400106B2, “Methods for inhibiting microbe growth” (priority 2018, dated 2022).
# Where two headings read alike, the source gives them in different places.
# Experiments:
# [1] = tested on: E. coli; assay: microbe, parasite or virus in culture; type: cell-based, Escherichia coli; conditions: for MIC: Escherichia coli, 18 h, read-out: MIC, E. coli, MHB−
# Procedure: (§1) In the following experiments, bacterial cells were cultured in 96-well microtiter plates in cation-adjusted Mueller-Hinton Broth (MHB) for 18 h at 37° C. The main strains used were E. coli (K-12 BW25113) (placed in stationary incubator) and S. aureus (Newman Strain) (incubated at 250 r.p.m). Knockout strains (ΔtolcC and ΔychM) were used from the Keio knockout collection (Baba et al., Construction of Escherichia coli K-12 in-frame, single-gene knockout mutants: the Keio collection. Mol Syst Biol 2, 2006 0008, doi:10.1038/msb4100050 (2006)). For MIC determination and checkerboard analyses, Clinical & Laboratory Standards Institute (CLSI) protocol was used. […] DiSC3 loading of S. aureus cells was performed as previously described (Farha et al., Collapsing the proton motive force to identify synergistic combinations against Staphylococcus aureus. Chemistry & biology 20, 1168-1178, doi:10.1016/j.chembiol.2013.07.006 (2013)). CCCP concentration of 20 μM was used. pH adjustments were made by addition of HCl or NaOH. INT assay and ATP bioluminescence assays were performed as previously described (Farha et al., Collapsing the proton motive force to identify synergistic combinations against Staphylococcus aureus. Chemistry & biology 20, 1168-1178, doi:10.1016/j.chembiol.2013.07.006 (2013)). For chemical-genomic studies, the Keio library was grown overnight in cation-adjusted MHB broth, in 384-well plates. From these, treatment plates (25 mM sodium bicarbonate, or a sterile water control) were inoculated and grown for 15 hours at 37° C., in a stationary incubator. Data was normalized according to Mangat et al (Mangat et al., Rank ordering plate data facilitates data visualization and normalization in high-throughput screening. J Biomol Screen 19, 1314-1320, doi:10.1177/1087057114534298 (2014)), with gene products and GO terms mined from EcoCyc. The GFP promoter library (Keseler et al., EcoCyc: fusing model organism databases with systems biology. Nucleic Acids Res 41, D605-612, doi:10.1093/nar/gks1027 (2013)) was grown for 18 hours at ambient temperature with the same inoculation strategy as with the Keio collection. The analysis pipeline of Zaslaver et al (Zaslaver et al., A comprehensive library of fluorescent transcriptional reporters for Escherichia coli. Nat Methods 3, 623-628, doi:10.1038/nmeth895 (2006)) was used to generate maps of promoter activity, from which lists of promoters with increased or decreased activity were compiled.
# (§2) Fold enhancement in MICs in the media supplemented with sodium bicarbonate is represented by a positive fold, whereas suppression of activity is represented by a negative fold.
# (§3) The effect of sodium bicarbonate on the activity of additional antibacterial agents was investigated. Clinical isolates of various bacteria were obtained from the ATCC and the IHMA.
# (§4) The effect of sodium bicarbonate on the activity of cationic antiseptic agents was investigated. Clinical isolates of various bacteria were obtained from the ATCC and the IHMA.
# [2] = tested on: S. aureus; assay: FIC index of pentamidine combined with various salts (checkerboard); type: cell-based, Staphylococcus aureus; conditions: combination of pentamidine isethionate with each salt; FICI≤0.5 synergy, 1-2 additivity, >4 antagonism
# Procedure: as §1
# [3] = tested on: S. aureus; assay: microbe, parasite or virus in culture; conditions: for MIC: Staphylococcus aureus, 18 h, read-out: MIC, S. aureus, MHB−
# Procedure: as §1, §2, §3, §4
# [4] = E. coli, salt at 25 mM, pH adjusted to 7.4
# [5] = antibiotic agents, MHB in the absence of sodium bicarbonate
# [6] = antibiotic agents, MHB in the presence of 25 mM sodium bicarbonate
# [7] = MHB in the presence of 25 mM sodium bicarbonate
SMILES,FIC Index (with pentamidine in S. aureus) [2],"MIC, S. aureus, MHB+ [3]",MIC [3] [µg/mL],"MIC, E. coli, MHB+ [1]","MIC [1, 5] [µg/mL]",also measured
OB(O)O [Boric acid],1,,,,,MIC of dirithromycin in the presence of the salt [1]: 128 µg/mL
O=S(=O)(O)CCO [Isethionic acid],2,,,,,"MIC of dirithromycin in the presence of the salt [1, 4]: 128 µg/mL"
CC(=O)[O-].[Na+] [Sodium acetate],2,,,,,MIC of dirithromycin in the presence of the salt [1]: 64 µg/mL
[Br-].[Na+] [Sodium bromide],2,,,,,"MIC of dirithromycin in the presence of the salt [1, 4]: 128 µg/mL"
CC[C@H]1OC(=O)[C@H](C)C(=O)[C@H](C)[C@@H](O[C@@H]2O[C@H](C)C[C@H](N(C)C)[C@H]2O)[C@](C)(OC)C[C@@H](C)C(=O)[C@H](C)[C@H]2N(CCCCn3cnc(-c4cccnc4)c3)C(=O)O[C@]12C [Telithromycin],,0.5 μg of antimicrobial agent/mL of buffer,4,16 μg of antimicrobial agent/mL of buffer,> 128,
C=C(NC(=O)C(=C)NC(=O)c1csc(C2=N[C@@H]3c4csc(n4)[C@H]4NC(=O)c5csc(n5)[C@H]([C@](C)(O)[C@@H](C)O)NC(=O)[C@H]5CSC(=N5)/C(=C/C)NC(=O)[C@H]([C@@H](C)O)NC(=O)c5csc(n5)[C@]3(CC2)NC(=O)[C@H](C)NC(=O)C(=C)NC(=O)[C@H](C)NC(=O)[C@H]([C@@H](C)CC)N[C@@H]2C=Cc3c([C@H](C)O)cc(nc3[C@H]2O)C(=O)O[C@@H]4C)n1)C(N)=O [Thiostrepton],,,0.5,,,"MIC, S. aureus, MHB+ [3, 6]: 0.12 μg of antimicrobial agent/mL of buffer; MIC [1]: > 128 µg/mL; MIC, E. coli, MHB+ [1, 6]: >128 μg of antimicrobial agent/mL of buffer"
CC1(C)S[C@@H]2[C@H](NC(=O)[C@H](C(=O)O)c3ccsc3)C(=O)N2[C@H]1C(=O)O [Ticarcillin],,32 μg of antimicrobial agent/mL of buffer,8,64 μg of antimicrobial agent/mL of buffer,32,
NC[C@H]1O[C@H](O[C@H]2[C@H](O)[C@@H](O[C@H]3O[C@H](CO)[C@@H](O)[C@H](N)[C@H]3O)[C@H](N)C[C@@H]2N)[C@H](N)C[C@@H]1O [Tobramycin],,0.5 μg of antimicrobial agent/mL of buffer,0.25,0.25 μg of antimicrobial agent/mL of buffer,0.25,
Oc1cc(Cl)ccc1Oc1ccc(Cl)cc1Cl [Triclosan],,0.062 μg of antimicrobial agent/mL of buffer,0.062,0.125 μg of antimicrobial agent/mL of buffer,0.125,
CN[C@H](CC(C)C)C(=O)N[C@H]1C(=O)N[C@@H](CC(N)=O)C(=O)N[C@H]2C(=O)N[C@H]3C(=O)N[C@H](C(=O)N[C@H](C(=O)O)c4cc(O)cc(O)c4-c4cc3ccc4O)[C@H](O)c3ccc(c(Cl)c3)Oc3cc2cc(c3O[C@@H]2O[C@H](CO)[C@@H](O)[C@H](O)[C@H]2O[C@H]2C[C@](C)(N)[C@H](O)[C@H](C)O2)Oc2ccc(cc2Cl)[C@H]1O [Vancomycin],,,1,,,"MIC, S. aureus, MHB+ [3, 7]: 4; MIC [1]: 256 µg/mL; MIC, E. coli, MHB+ [1, 7]: 256"
O=C(O)c1ccc(O)cc1 [p-hydroxybenzoate],,,,64 μg of antimicrobial agent/mL of buffer,,"MIC, S. aureus, MHB ([3]; antiseptic agents, MHB in the absence of sodium bicarbonate): 16 μg of antimicrobial agent/mL of buffer; MIC, S. aureus, MHB+ ([3]; antiseptic agents, MHB in the presence of 25 mM sodium bicarbonate): 16 μg of antimicrobial agent/mL of buffer; Fold, S. aureus ([3]; antiseptic agents, fold shift in MIC): 1; Fold, E. coli [1]: 1; MIC, E. coli, MHB [1]: 64 μg of antimicrobial agent/mL of buffer"
Cc1cc(NS(=O)(=O)c2ccc(N)cc2)no1 [sulfamethoxazole],,,,,,"effect of 25 mM sodium bicarbonate on antibacterial activity ([3]; S. aureus, result in words): remained largely unchanged; effect of 25 mM sodium bicarbonate on antibacterial activity [1]: remained largely unchanged"
